The values below are quoted from earlier work in US9200991B2, “Sorptive extraction layer for immobilized liquid extraction” (Tecan Trading AG, priority 2013, dated 2015).

For the compound `CC(C)Cc1ccc(C(C)C(=O)O)cc1` (stereo not shown) [Ibuprofen], the “reported logP” value is given as “approximately 3.8”.
